{"source": "patent US20090318426A1", "about": "“USE OF FLUMAZENIL IN THE MANUFACTURE OF A MEDICAMENT FOR THE TREATMENT OF DEPRESSIVE DISORDERS” (priority 2006, published 2009)", "key": {"[1]": {"test_system": "patients presenting a depressive disorder", "assay": "Clinical observation of mood, attention and sleep after administration of flumazenil", "format": "in vivo, human", "conditions": "for changes in mood: three patients", "protocol": "(§1) Three patients presenting a depressive disorder were subjected to treatment.\n(§2) Flumazenil was administered in doses of 0.2 mg every 3 minutes (up to a total of 2 mg/day). […] Before starting the first administration of flumazenil, a test consisting of the administration of a bolus of 0.1 mg of flumazenil was conducted to evaluate the reaction of the subject."}, "[2]": {"test_system": "patients presenting a depressive disorder", "conditions": "in vivo", "protocol": "as §1\nDuring the assessment prior to the admission, a thorough psychopathological and medical evaluation was conducted first thing in the morning (9:00 AM). The medical examination included an electrocardiogram and a complete blood analysis, in which the different cell series (red blood cells, white blood cells and platelets) and the biochemical profile (glucose, creatinine, urea, cholesterol and the fractions thereof, triglycerides, alkaline phosphatase, GOT, GPT, GGT, LDH, total proteins, etc.) were studied.\nFlumazenil was administered in doses of 0.2 mg every 3 minutes (up to a total of 2 mg/day). This quantity per dose was established to reduce as much as possible undesirable side effects related to possible interactions with other drugs or psychopathologies. Before starting the first administration of flumazenil, a test consisting of the administration of a bolus of 0.1 mg of flumazenil was conducted to evaluate the reaction of the subject."}, "[3]": {"test_system": "patients presenting a depressive disorder", "assay": "SCL-90-R (Symptom Checklist 90 Revised) scale in patients treated with flumazenil", "format": "in vivo, human", "conditions": "for SCL-90-R at the end: after third administration of flumazenil 2 mg/day, 0.2 mg every 3 minutes", "protocol": "as §1, §2"}}, "data": [{"smiles": "CCOC(=O)c1ncn2c1CN(C)C(=O)c1cc(F)ccc1-2", "note": "[Flumazenil, 8-fluoro-5,6-dihydro-5-methyl-6-oxo-4H-imidazol[1,5-α][1,4]benzodiazepine-3-carboxylic acid ethyl ester]", "values": [{"measurement": "mood of the treated patients", "setting": "[1]; 2 mg/day divided into doses of 0.2 mg every 3 minutes", "value": "substantially improves the mood"}, {"measurement": "attention, concentration and other superior faculties", "setting": "[1]; after third administration", "value": "improvement of attention, concentration and other superior faculties being more evident"}, {"measurement": "existing sleep disorders", "setting": "[1]; after third administration", "value": "completely corrected"}, {"measurement": "sleep (early waking)", "setting": "[1]; patient P01, first night after first administration", "value": "did not occur on this first night"}, {"measurement": "sleep (difficulty in falling asleep)", "setting": "[1]; patient P03, first night after first administration", "value": "fell asleep early in the night"}, {"measurement": "changes in mood", "setting": "[1]; after first administration, with respect to time of admission", "value": "feeling of wellbeing and more calmness"}, {"measurement": "changes in mood", "setting": "[1]; after second administration", "value": "better mood"}, {"measurement": "time until induced improvement reaches a clinical level", "setting": "[1]; treatment of depressive disorders", "value": "less than one week"}, {"measurement": "blood pressure values", "setting": "[2]", "value": "remained within the range of normal"}, {"measurement": "cardiovascular values", "setting": "[2]", "value": "remained within normal parameters"}, {"measurement": "cardiovascular values (heart rate and blood pressure)", "setting": "[2]", "value": "did not undergo significant changes"}, {"measurement": "heart rate values", "setting": "[2]", "value": "did not undergo any significant increases"}, {"measurement": "secondary symptoms", "setting": "[2]", "value": "Secondary symptoms did not occur"}, {"measurement": "symptoms associated to administration", "setting": "[2]", "value": "no symptoms associated to such administration"}, {"measurement": "SCL-90-R depression values", "setting": "[3]; after third administration, versus start", "value": "reduction in the depression values"}, {"measurement": "SCL-90-R at the end", "setting": "[3]; patient P01 (associated cocaine consumption), SCL-90-R at the start 78", "value": 0}, {"measurement": "SCL-90-R at the end", "setting": "[3]; patient P02 (associated cocaine consumption), SCL-90-R at the start 48", "value": 30}, {"measurement": "SCL-90-R at the end", "setting": "[3]; patient P03 (associated alcohol consumption), SCL-90-R at the start 92", "value": 25}]}]}
